Columns and labels:
[1] = molecular target: T1, 11-beta-hydroxysteroid dehydrogenase type 2 (Mus musculus) (UniProt P51661); experiment: Inhibition of mouse 11beta-HSD2 at 10 uM
T1 sequence (whole entry): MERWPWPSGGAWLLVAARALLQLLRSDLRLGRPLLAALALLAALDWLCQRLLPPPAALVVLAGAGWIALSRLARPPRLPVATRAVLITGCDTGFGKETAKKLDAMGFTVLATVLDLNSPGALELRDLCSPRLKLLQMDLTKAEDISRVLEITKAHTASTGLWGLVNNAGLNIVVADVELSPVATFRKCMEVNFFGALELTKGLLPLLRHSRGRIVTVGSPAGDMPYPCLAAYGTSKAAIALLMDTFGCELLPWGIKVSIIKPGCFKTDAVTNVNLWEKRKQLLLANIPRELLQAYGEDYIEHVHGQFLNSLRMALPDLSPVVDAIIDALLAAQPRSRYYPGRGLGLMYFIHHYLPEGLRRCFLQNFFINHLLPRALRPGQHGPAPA

[2] = molecular target: 11-beta-hydroxysteroid dehydrogenase 1 (Mus musculus) (UniProt P50172); experiment: Inhibition of mouse 11beta-HSD1 at 10 uM
[3] = molecular target: 11-beta-hydroxysteroid dehydrogenase 1 (Mus musculus, UniProt P50172); experiment: Inhibition of mouse 11beta-HSD1
11-beta-hydroxysteroid dehydrogenase 1, sequence (P50172 whole entry): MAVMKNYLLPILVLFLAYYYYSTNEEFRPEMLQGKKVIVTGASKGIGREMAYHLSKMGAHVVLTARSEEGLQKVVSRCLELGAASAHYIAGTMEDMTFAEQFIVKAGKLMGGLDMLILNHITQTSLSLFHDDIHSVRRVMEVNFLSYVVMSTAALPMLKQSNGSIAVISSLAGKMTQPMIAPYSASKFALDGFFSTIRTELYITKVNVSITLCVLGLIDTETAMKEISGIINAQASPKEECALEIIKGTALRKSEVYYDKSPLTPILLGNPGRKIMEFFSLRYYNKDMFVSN

11-beta-hydroxysteroid dehydrogenase 1 (Mus musculus), sequence (P50172 whole entry, looked up): as the sequence (P50172 whole entry) above

Cc1ccc(C(=O)COC(=O)C(Cc2ccccc2)N2C(=O)c3ccccc3C2=O)cc1 (configuration not stated)
inhibition [1]: 3.4% | inhibition [2]: 60%

Cc1cc(NS(=O)(=O)c2ccc(NC(=O)c3ccc(C(=O)C(=O)c4ccccc4)cc3)cc2)nc(C)n1
inhibition [1]: 9.1% | IC50 [3]: 0.48 µM

O=C(CN1C(=O)C2C3c4ccccc4C(c4ccccc43)C2C1=O)Nc1cccc(Cl)c1 (configuration not stated)
inhibition [1]: 2.2% | IC50 [3]: 12.5 µM

Cc1ccc(S(=O)(=O)N(CC(=O)N2CCCCCC2)c2cc(Cl)ccc2C)cc1
inhibition [1]: 0.8% | IC50 [3]: 6.1 µM

CC(C)COC(=O)c1ccc(NC(=O)c2ccc3c(c2)-c2ccccc2C3=O)cc1
inhibition [1]: 3.7% | IC50 [3]: 3.6 µM

O=C(CSc1nc2ccc(NC(=O)c3ccccc3Br)cc2s1)NCCc1ccccc1
inhibition [1]: 0% | IC50 [3]: 2.09 µM

Source: ChEMBL document CHEMBL1141619, “Discovery of novel inhibitors of 11beta-hydroxysteroid dehydrogenase type 1 by docking and pharmacophore modeling” (Bioorg Med Chem Lett, 2008)
